Source: patent US20250109140A1, “5-[5-(PIPERIDIN-4-YL)THIENO[3,2-C]PYRAZOL-2-YL]INDAZOLE DERIVATIVES AND RELATED COMPOUNDS AS MODULATORS FOR SPLICING NUCLEIC ACIDS AND FOR THE TREATMENT OF PROLIFERATIVE DISEASES” (REMIX THERAPUTICS INC., priority 2022, published 2025)
Where a name gives a salt, the structure may show the parent alone. Read-outs that look alike come from different tables or passages of the source.

Key:
MYB mRNA = assay: Splicing RT-qPCR assay, MYB canonical (CJ) and alternative (AJ) junction mRNA; format: cell-based; settings: Homo sapiens; for EC50: AC50 = 50% response in AJ mRNA increase
Outline: (§1)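 Junction-specific RT-qPCR read-out: CJ marks canonical transcript, AJ marks alternative-exon inclusion, each normalized to GAPDH, GUSB or PPIA. Cells (A673 or K562) were dosed for 24 h with compound up to 10 uM final in 11 3-fold steps. RQ from 2^(−ΔΔCt) against DMSO became percentage response.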

SMN2 mRNA = assay: Splicing RT-qPCR gene panel, SMN2 canonical junction (CJ) mRNA; format: cell-based; settings: Homo sapiens; Table 8; larger gene panel, decrease in CJ mRNA levels
Outline: as §1

HTT mRNA = assay: Splicing RT-qPCR assay, HTT canonical (CJ) and alternative (AJ) junction mRNA; format: cell-based; settings: Homo sapiens; for EC50: AC50 = 50% response in AJ mRNA increase
Outline: as §1

HiBiT-tagged MYB protein = assay: HiBiT protein abundance assay, MYB (K562 HiBiT knock-in cells); format: cell-based, human; settings: 24 hours treatment
Outline: (§2)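 K562 cells carrying endogenous HiBiT-tagged targets were treated 24 h at 37 °C with 10-point 3-fold dilutions from 10 µM final (≤0.25% DMSO). Abundance read by lytic HiBiT luminescence, normalized to DMSO and unmodified-K562 controls; IC50 is the 4-parameter-fit concentration giving 50% of untreated signal.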

[1] = test system: K562 (human chronic myelogenous leukemia) cells; assay: Cell viability, Cell Titer Glo 2.0 assay, K562 cells; format: cell-based; settings: 72 hours
Outline: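 K562 cells seeded at 500 cells/well in IMDM + 10% FBS; compounds serially diluted in DMSO, then 1:100 in medium (final DMSO 0.1%). Incubated 72 h at 37° C, 5% CO2; viability read by Cell Titer Glo 2.0 luminescence against medium-only blank.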

Target C mRNA = assay: Splicing RT-qPCR gene panel, Target C canonical junction (CJ) mRNA; format: cell-based; settings: Homo sapiens; Table 8; larger gene panel, decrease in CJ mRNA levels
Outline: as §1

Target C = assay: HiBiT protein abundance assay, Target C (K562 HiBiT knock-in cells); format: cell-based, human; settings: 24 hours treatment
Outline: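 K562 HiBiT knock-in cells (10000/well) were treated 24 h at 37 °C with a 10-point 3-fold dilution series, top final concentration […], DMSO ≤0.25%. Target abundance was read by lytic HiBiT luminescence and normalized to unmodified K562 and DMSO controls. A four-parameter fit gave the concentration giving 50% of untreated abundance.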

HiBiT-tagged HTT protein = assay: HiBiT protein abundance assay, HTT (K562 HiBiT knock-in cells); format: cell-based, human; settings: 24 hours treatment
Outline: as §2

[2] = Table 7, RT-qPCR, A673 or K562 cells, 24 hours treatment
[3] = Table 7, IC50 = 50% response in CJ mRNA decrease, RT-qPCR, A673 or K562 cells, 24 hours treatment, read-out: MYB CJ
[4] = Table 8, larger gene panel, decrease in CJ mRNA levels, read-out: MYB CJ IC50
[5] = Table 7, IC50 = 50% response in CJ mRNA decrease, RT-qPCR, A673 or K562 cells, 24 hours treatment, read-out: HTT CJ
[6] = Table 8, larger gene panel, decrease in CJ mRNA levels, read-out: HTT CJ IC50

Compound	EC50 (MYB mRNA; [2]) [µM]	IC50 (MYB mRNA; [3]) [µM]	IC50 (MYB mRNA; [4]) [µM]	IC50 (SMN2 mRNA) [µM]	EC50 (HTT mRNA; [2]) [µM]	IC50 (HTT mRNA; [5]) [µM]	IC50 (HTT mRNA; [6]) [µM]	IC50 (HiBiT-tagged MYB protein) [µM]	IC50 [1] [µM]	IC50 (Target C mRNA) [µM]	IC50 (Target C) [µM]	IC50 (HiBiT-tagged HTT protein) [µM]
Cn1cc2cc(-c3cc4cn(C5CCNCC5)nc4s3)c(F)cc2n1 [Compound 210]	0.1 to 1	0.1 to 1	0.1 to 1	< 0.1	< 0.1	< 0.1	< 0.1	0.1 to 1	0.1 to 1	0.1 to 1	0.1 to 1	< 0.1
Cn1cc2cc(-c3cc4cn(C5CCNCC5)nc4s3)c(C#N)cc2n1 [Compound 211]	1 to 10	1 to 10	1 to 10	0.1 to 1	1 to 10	1 to 10	1 to 10	1 to 10	1 to 10	1 to 10	1 to 10	0.1 to 1
Cc1cn2nc(-c3cc4cn(C5CCNCC5)nc4s3)c(O)c2c(C)n1 [Compound 213, 4,6-dimethyl-2-[2-(piperidin-4-yl)thieno[2,3-c]pyrazol-5-yl]pyrazolo[1,5-a]pyrazin-3-ol hydrochloride]	1 to 10	> 10	1 to 10	1 to 10	1 to 10	1 to 10	1 to 10	> 10	1 to 10	> 10	> 10	> 10
Cn1cc2cc(-c3cc4cn(C5CCNCC5)nc4s3)ncc2n1 [Compound 214]	1 to 10	1 to 10	1 to 10	0.1 to 1	0.1 to 1	1 to 10	0.1 to 1	1 to 10	1 to 10	1 to 10	1 to 10	1 to 10
Cn1cc2cc(-c3cc4cn(C5CCNCC5)nc4s3)c(O)c(F)c2n1 [Compound 215]	0.1 to 1	1 to 10	0.1 to 1	< 0.1	0.1 to 1	0.1 to 1	0.1 to 1	1 to 10	1 to 10	0.1 to 1	1 to 10	0.1 to 1
Cc1cn2cc(-c3cc4cn(C5CCNCC5)nc4s3)cc(C)c2n1 [Compound 216]	0.1 to 1	0.1 to 1	0.1 to 1	< 0.1	< 0.1	< 0.1	< 0.1	0.1 to 1	0.1 to 1	0.1 to 1	< 0.1	< 0.1
COc1c(-c2cc3cn(C4CCNCC4)nc3s2)cc2cn(C)nc2c1F [Compound 218]	0.1 to 1	0.1 to 1	0.1 to 1	< 0.1	0.1 to 1	< 0.1	0.1 to 1	0.1 to 1	0.1 to 1	0.1 to 1	0.1 to 1	< 0.1
COc1c(-c2cc3cn(C4CCNCC4)nc3s2)nn2cc(C)nc(C)c12 [Compound 219, 4-(5-{3-methoxy-4,6-dimethylpyrazolo[1,5-a]pyrazin-2-yl}thieno[2,3-c]pyrazol-2-yl) piperidine]	> 10	> 10	> 10	1 to 10	> 10	> 10	> 10	> 10	1 to 10	> 10	> 10	> 10
Cn1cc2cc(-n3cc4cc(C5CCNCC5)sc4n3)c(O)cc2n1 [Compound 220]	1 to 10	1 to 10	1 to 10	1 to 10	1 to 10	1 to 10	1 to 10	1 to 10	1 to 10	1 to 10	1 to 10	1 to 10
Cc1c(O)c(-c2cc3cn(C4CCNCC4)nc3s2)cc2cn(C)nc12 [Compound 221]	> 10	> 10	> 10	> 10	> 10	> 10	> 10	0.1 to 1	1 to 10	> 10	0.1 to 1	0.1 to 1
